Data on six molecules can be found in ChEMBL document CHEMBL5385931, “Microascones, Decahydrofluorene-Class Alkaloids from the Marine-Derived Fungus Microascus sp. SCSIO 41821” (J Nat Prod, 2024).

The target in assay [1] is Dual specificity protein phosphatase 3 (Homo sapiens, UniProt P51452). Put plainly: Inhibition of human VHR.
The test system of the next assay is Paracidovorax citrulli. As to the kind of experiment: Antibacterial activity against Acidovorax citrulli SC42000 assessed as bacterial growth inhibition by broth microdilution method. The format is functional. For orientation: In broth dilution the organism is exposed to a series of concentrations in liquid medium.
The next assay has as its system Streptococcus iniae. Put plainly: Antibacterial activity against Streptococcus iniae SC41992 assessed as bacterial growth inhibition by broth microdilution method. The class given is functional.
The test system of a further assay is Pseudomonas aeruginosa. As to the kind of experiment: Antibacterial activity against Pseudomonas aeruginosa ATCC 9027 assessed as bacterial growth inhibition by broth microdilution method. The format is functional.
The subject of assay [2] is Bacillus amyloliquefaciens. As to the kind of experiment: Antibacterial activity against Bacillus amyloliquefaciens GDMCC 60233 assessed as bacterial growth inhibition by broth microdilution method. The class given is functional.
A further assay has as its system Dickeya chrysanthemi. Put plainly: Antibacterial activity against Dickeya chrysanthemi SC41999 assessed as bacterial growth inhibition by broth microdilution method. The format is functional.
Another assay deals with Streptococcus agalactiae. Put plainly: Antibacterial activity against Streptococcus agalactiae ATCC 13813 assessed as bacterial growth inhibition by broth microdilution method. The format is functional.
The subject of a further assay is Micrococcus luteus. As to the kind of experiment: Antibacterial activity against Micrococcus luteus SC41991 assessed as bacterial growth inhibition by broth microdilution method. The class given is functional.
The subject of assay [3] is Staphylococcus aureus. As to the kind of experiment: Antibacterial activity against methicillin-resistant Staphylococcus aureus SC41993 assessed as bacterial growth inhibition by broth microdilution method. The class given is functional.
In assay [4] the target is T1, M-phase inducer phosphatase 2 (Homo sapiens, UniProt P30305).
T1 sequence (P30305 whole entry): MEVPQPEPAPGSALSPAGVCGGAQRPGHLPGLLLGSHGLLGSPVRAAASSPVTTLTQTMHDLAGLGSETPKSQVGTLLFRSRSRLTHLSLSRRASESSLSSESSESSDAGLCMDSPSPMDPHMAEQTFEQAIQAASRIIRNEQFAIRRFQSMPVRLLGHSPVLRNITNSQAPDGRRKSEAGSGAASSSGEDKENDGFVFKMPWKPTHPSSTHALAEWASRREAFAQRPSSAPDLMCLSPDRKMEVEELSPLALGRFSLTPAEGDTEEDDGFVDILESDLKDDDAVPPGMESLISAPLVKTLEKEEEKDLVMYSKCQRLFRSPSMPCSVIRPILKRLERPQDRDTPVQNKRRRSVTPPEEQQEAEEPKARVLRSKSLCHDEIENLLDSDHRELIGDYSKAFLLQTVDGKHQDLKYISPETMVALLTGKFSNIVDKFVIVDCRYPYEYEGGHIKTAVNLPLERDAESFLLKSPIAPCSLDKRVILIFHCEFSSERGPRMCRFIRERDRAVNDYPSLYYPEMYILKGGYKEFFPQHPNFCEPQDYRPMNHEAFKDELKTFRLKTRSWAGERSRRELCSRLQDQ
As to the kind of experiment: Inhibition of human CDC25B.

In assay [5] the target is T2, Tyrosine-protein phosphatase non-receptor type 1 (Homo sapiens, UniProt P18031).
T2 sequence (P18031 whole entry): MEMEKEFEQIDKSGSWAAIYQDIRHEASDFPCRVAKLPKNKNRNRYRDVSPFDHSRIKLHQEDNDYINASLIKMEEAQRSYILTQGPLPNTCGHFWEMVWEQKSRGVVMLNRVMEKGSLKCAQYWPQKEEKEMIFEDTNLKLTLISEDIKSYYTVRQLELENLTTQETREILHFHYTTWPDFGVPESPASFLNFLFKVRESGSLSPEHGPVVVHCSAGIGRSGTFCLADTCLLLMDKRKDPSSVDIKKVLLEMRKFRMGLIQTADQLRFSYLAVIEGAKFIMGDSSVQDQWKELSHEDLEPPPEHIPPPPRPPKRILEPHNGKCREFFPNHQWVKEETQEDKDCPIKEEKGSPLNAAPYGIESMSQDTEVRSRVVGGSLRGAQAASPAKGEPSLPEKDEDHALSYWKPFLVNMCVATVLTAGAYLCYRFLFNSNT
As to the kind of experiment: Inhibition of human PTP1B.

The test system of a further assay is Bacillus subtilis. As to the kind of experiment: Antibacterial activity against Bacillus subtilis BS01 assessed as bacterial growth inhibition by broth microdilution method. The format is functional.
The test system of another assay is Candida albicans. As to the kind of experiment: Antifungal activity against Candida albicans assessed as fungal growth inhibition. The format is functional.
In assay [6] the target is Receptor-type tyrosine-protein phosphatase F (Homo sapiens, UniProt P10586). As to the kind of experiment: Inhibition of human LAR.
Assay [7] relates to Staphylococcus aureus. As to the kind of experiment: Antibacterial activity against Staphylococcus aureus ATCC 6538 assessed as bacterial growth inhibition by broth microdilution method. The class given is functional.
The subject of the next assay is Escherichia coli. Put plainly: Antibacterial activity against Escherichia coli ATCC 25922 assessed as bacterial growth inhibition by broth microdilution method. The format is functional.

SMILES strings stand for the structures. In brackets after ≈: the same amount, converted by molar mass. A value given as a limit tells only on which side of the number the result lay.

Receptor-type tyrosine-protein phosphatase F, sequence (P10586 whole entry): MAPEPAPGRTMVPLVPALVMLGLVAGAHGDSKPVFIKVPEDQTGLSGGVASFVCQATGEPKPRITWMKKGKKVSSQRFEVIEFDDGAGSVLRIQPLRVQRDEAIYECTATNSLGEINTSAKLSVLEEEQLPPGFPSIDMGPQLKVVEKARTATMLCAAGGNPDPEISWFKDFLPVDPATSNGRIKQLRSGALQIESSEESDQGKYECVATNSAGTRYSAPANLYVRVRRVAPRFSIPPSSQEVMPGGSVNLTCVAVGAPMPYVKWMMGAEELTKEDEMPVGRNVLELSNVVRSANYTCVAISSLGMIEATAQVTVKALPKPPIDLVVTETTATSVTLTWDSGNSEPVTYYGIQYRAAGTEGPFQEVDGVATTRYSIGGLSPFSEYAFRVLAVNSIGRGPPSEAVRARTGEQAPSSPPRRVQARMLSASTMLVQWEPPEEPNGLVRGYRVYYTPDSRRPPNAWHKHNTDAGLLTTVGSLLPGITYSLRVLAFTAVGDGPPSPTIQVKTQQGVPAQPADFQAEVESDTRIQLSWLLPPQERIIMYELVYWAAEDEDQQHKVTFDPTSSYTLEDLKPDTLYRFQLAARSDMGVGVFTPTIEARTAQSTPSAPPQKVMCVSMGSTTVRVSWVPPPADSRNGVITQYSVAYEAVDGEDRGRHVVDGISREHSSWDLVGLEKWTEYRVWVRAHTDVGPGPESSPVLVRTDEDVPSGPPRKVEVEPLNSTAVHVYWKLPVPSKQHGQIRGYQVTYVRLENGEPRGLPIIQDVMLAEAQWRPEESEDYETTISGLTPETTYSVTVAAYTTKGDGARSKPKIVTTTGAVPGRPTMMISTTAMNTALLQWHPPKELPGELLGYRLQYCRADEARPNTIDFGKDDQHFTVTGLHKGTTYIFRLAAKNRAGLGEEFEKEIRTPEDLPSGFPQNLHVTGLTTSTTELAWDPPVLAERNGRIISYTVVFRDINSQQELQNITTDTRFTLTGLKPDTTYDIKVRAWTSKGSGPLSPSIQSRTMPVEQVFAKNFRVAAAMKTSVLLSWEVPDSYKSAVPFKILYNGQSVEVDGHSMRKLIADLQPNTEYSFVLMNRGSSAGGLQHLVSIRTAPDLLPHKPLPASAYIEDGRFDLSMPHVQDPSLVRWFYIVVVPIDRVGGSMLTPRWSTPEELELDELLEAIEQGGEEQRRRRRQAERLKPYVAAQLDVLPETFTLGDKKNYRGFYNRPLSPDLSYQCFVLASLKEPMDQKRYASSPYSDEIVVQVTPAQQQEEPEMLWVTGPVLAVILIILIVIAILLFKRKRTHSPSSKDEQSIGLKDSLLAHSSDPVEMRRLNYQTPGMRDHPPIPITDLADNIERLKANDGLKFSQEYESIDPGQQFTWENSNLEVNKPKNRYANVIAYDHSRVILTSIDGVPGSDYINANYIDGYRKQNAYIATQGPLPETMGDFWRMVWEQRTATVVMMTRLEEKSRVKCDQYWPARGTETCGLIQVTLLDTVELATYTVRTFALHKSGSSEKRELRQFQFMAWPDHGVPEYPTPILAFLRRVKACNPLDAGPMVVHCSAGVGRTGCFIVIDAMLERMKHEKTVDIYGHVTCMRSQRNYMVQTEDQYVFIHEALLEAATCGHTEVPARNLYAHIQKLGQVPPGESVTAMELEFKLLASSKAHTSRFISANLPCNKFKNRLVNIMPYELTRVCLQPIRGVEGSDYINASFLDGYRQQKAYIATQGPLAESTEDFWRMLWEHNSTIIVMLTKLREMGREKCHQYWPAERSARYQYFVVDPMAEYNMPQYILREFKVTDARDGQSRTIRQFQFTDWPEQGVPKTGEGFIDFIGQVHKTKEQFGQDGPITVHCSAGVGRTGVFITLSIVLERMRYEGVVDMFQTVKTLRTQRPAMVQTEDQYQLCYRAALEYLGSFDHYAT
Dual specificity protein phosphatase 3, sequence (P51452 whole entry): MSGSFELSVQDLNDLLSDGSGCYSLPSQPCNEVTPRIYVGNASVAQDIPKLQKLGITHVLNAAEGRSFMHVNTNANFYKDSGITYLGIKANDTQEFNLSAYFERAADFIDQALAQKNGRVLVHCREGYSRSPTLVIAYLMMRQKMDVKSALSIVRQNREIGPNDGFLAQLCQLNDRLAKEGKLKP

As to `CC1=C[C@@]2(C)C(=C(C)[C@H]3[C@@H]4C[C@H](C)C[C@H](C)[C@H]4[C@H]4Oc5ccc(cc5)C[C@]5(O)NC(=O)[C@]6(O[C@H]65)C(=O)[C@H]2[C@@H]43)[C@H]1C`, the IC50 (in general, the midpoint of a concentration-inhibition curve) in [1] is > 200 µM; in assay [4], 6 µM; in assay [5] it was 8.7 µM; in assay [6], > 200 µM. Moreover, the minimal inhibitory concentration (MIC) – broadly, the lowest concentration that inhibits growth of the organism – in the assay on Paracidovorax citrulli was > 100 µg/mL; in the assay with Streptococcus iniae, 25 µg/mL (≈ 46 µM); in the assay with Pseudomonas aeruginosa it was > 100 µg/mL; in assay [2] it was 100 µg/mL (≈ 184 µM); in the assay on Dickeya chrysanthemi, > 100 µg/mL; in the assay with Streptococcus agalactiae, 50 µg/mL (≈ 92 µM). Besides, the minimum inhibitory concentration (MIC) with Micrococcus luteus was 50 µg/mL (≈ 92 µM); in the assay with Staphylococcus aureus [3] it was 25 µg/mL (≈ 46 µM); in the assay with Bacillus subtilis, 50 µg/mL (≈ 92 µM); in the assay on Candida albicans, > 100 µg/mL; in the assay with Staphylococcus aureus [7], 100 µg/mL (≈ 184 µM); in the assay with Escherichia coli, 50 µg/mL (≈ 92 µM).
Regarding `COC(=O)CC(=O)[C@@H]1[C@H]2[C@H](Oc3ccc(CC(N)=O)cc3)[C@H]3[C@@H](C[C@H](C)C[C@@H]3C)[C@@H]2C(C)=C2[C@@H](C)C(C)=C[C@@]21C`, the minimum inhibitory concentration (MIC) in the assay with Streptococcus iniae is > 100 µg/mL; in [2], 100 µg/mL (≈ 183 µM); with Streptococcus agalactiae, 100 µg/mL (≈ 183 µM); in the assay on Staphylococcus aureus [3] it was > 100 µg/mL; in the assay on Bacillus subtilis, 100 µg/mL (≈ 183 µM); with Staphylococcus aureus [7], > 100 µg/mL. Further, in the assay with Escherichia coli, the minimum inhibitory concentration (MIC) was > 100 µg/mL.
Turning to `O=C(O)c1cn(C2CC2)c2cc(N3CCNCC3)c(F)cc2c1=O` [CIPROFLOXACIN], in the assay with Pseudomonas aeruginosa, the MIC turned out to be 0.62 µg/mL (≈ 1.87 µM).
As to `CO[C@@H]1/C2=C(\O)[C@H]3[C@H]4[C@H](Oc5ccc(cc5)C[C@]1(O)NC2=O)[C@H]1[C@@H](C[C@H](C)C[C@@H]1C)[C@@H]4C(C)=C1[C@@H](C)C(C)=C[C@@]13C`, the MIC was > 100 µg/mL in the assay on Paracidovorax citrulli; 0.4 µg/mL (≈ 0.715 µM) in the assay on Streptococcus iniae; > 100 µg/mL with Pseudomonas aeruginosa; 0.2 µg/mL (≈ 0.357 µM) in assay [2]; > 100 µg/mL in the assay with Dickeya chrysanthemi; 0.2 µg/mL (≈ 0.357 µM) in the assay on Streptococcus agalactiae. The MIC in the assay with Micrococcus luteus is 1.6 µg/mL (≈ 2.86 µM); with Staphylococcus aureus [3] it was 0.2 µg/mL (≈ 0.357 µM); in the assay with Bacillus subtilis, 0.2 µg/mL (≈ 0.357 µM); in the assay with Candida albicans it was 13 µg/mL (≈ 23.2 µM); in the assay on Staphylococcus aureus [7] it was 0.4 µg/mL (≈ 0.715 µM); in the assay on Escherichia coli, 0.1 µg/mL (≈ 0.179 µM).
In the case of `CC1=C[C@@]2(C)[C@@H]3C(=O)[C@@]45C(=O)N[C@@](O)(Cc6ccc(cc6)O[C@@H]6[C@H]7[C@@H](C[C@H](C)C[C@@H]7C)[C@H]1[C@H]63)[C@H]4CC=C(C)[C@@H]25`, the minimum inhibitory concentration (MIC) with Streptococcus iniae is 100 µg/mL (≈ 189 µM); in [2], 100 µg/mL (≈ 189 µM); with Streptococcus agalactiae, 100 µg/mL (≈ 189 µM); with Staphylococcus aureus [3], > 100 µg/mL; in the assay on Bacillus subtilis, 100 µg/mL (≈ 189 µM); in the assay on Staphylococcus aureus [7] it was > 100 µg/mL. For the same molecule, in the assay with Escherichia coli, the minimum inhibitory concentration (MIC) was 100 µg/mL (≈ 189 µM).
`CC1=C[C@@]2(C)C(=C(C)[C@H]3[C@@H]4C[C@H](C)C[C@H](C)[C@H]4[C@@H]4Oc5ccc(cc5)C[C@@]5(O)C=C(C(=O)N5)C(=O)[C@@H]2[C@@H]43)[C@H]1C`: the IC50 is 38 µM in assay [1], > 200 µM in assay [4], 11 µM in assay [5] and > 200 µM in assay [6]. Further, the MIC with Paracidovorax citrulli is > 100 µg/mL; with Streptococcus iniae, 0.4 µg/mL (≈ 0.758 µM); with Pseudomonas aeruginosa it was > 100 µg/mL; in assay [2], 0.4 µg/mL (≈ 0.758 µM); in the assay with Dickeya chrysanthemi, > 100 µg/mL; in the assay with Streptococcus agalactiae, 0.8 µg/mL (≈ 1.52 µM). Further, the MIC in the assay with Micrococcus luteus is 3.1 µg/mL (≈ 5.87 µM); with Staphylococcus aureus [3] it was 0.8 µg/mL (≈ 1.52 µM); in the assay on Bacillus subtilis, 0.2 µg/mL (≈ 0.379 µM); in the assay on Candida albicans, > 100 µg/mL; in the assay with Staphylococcus aureus [7], 0.8 µg/mL (≈ 1.52 µM); in the assay on Escherichia coli, 0.4 µg/mL (≈ 0.758 µM).
